# PubChem BioAssay (NCI)
# Values joined by “and” are separate entries in the source; they are usually repeats but may differ in a detail not shown here. Identical values can stand only once.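 Dose response: 5 concentrations. Exposure: 48 h. Format: 96-well plates. Endpoint: linear interpolation; highest concentration if not reached. GI50 marks 50% less growth. The concentration for full growth arrest is given as TGI.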
# What was measured:
# Experiment in all cases: NCI anticancer screen, dose series, 48 h
# [1] = tested on: A549 NSCLC
# [2] = tested on: CCRF-CEM leukemia
# [3] = tested on: COLO 205 colon
# [4] = tested on: HCT-15 colon
# [5] = tested on: HOP-62 NSCLC
# [6] = tested on: HOP-92 NSCLC
# [7] = tested on: IGROV1 ovarian
# [8] = tested on: MOLT-4 leukemia
# [9] = tested on: NCI-H226 lung
# [10] = tested on: SF-539 CNS
Structure (SMILES),GI50 [1],TGI [1],GI50 [2],TGI [2],GI50 [3],TGI [3],GI50 [4],TGI [4],GI50 [5],TGI [5],GI50 [6],TGI [6],GI50 [7],TGI [7],GI50 [8],TGI [8],GI50 [9],TGI [9],GI50 [10],TGI [10]
CC(C)n1nc(-c2cc3cc(O)ccc3[nH]2)c2c(N)ncnc21,0.313 µM,2.67 µM,0.345 µM,4.28 µM,0.363 µM,4.19 µM,0.342 µM,13.9 µM,0.393 µM,3.56 µM,0.0344 µM,0.483 µM,0.0945 µM,0.774 µM,0.315 µM,6.2 µM,0.117 µM,1.31 µM,0.309 µM,2.18 µM
CC(C)(C)c1cc(Br)c(O)c(CN(Cc2cc(C(C)(C)C)cc(Br)c2O)C2CCCCC2)c1,–,27.1 µM,–,26.6 µM,–,23.3 µM,–,25.4 µM,–,28.5 µM,–,28.8 µM,–,28.7 µM,–,26 µM,–,29.1 µM,–,–
COC(=O)/C(=N\Nc1nnc(C)n1N)C(C#N)c1ccc(Cl)cc1 (configuration not stated),–,> 100 µM,–,–,–,> 100 µM,–,> 100 µM,–,> 100 µM,–,> 100 µM,–,> 100 µM,–,–,–,> 100 µM,–,> 100 µM
O=C1C2C3C=C4c5ccccc5N(c5ccccc5)C4(C2C(=O)N1Cc1ccccc1)C1C(=O)N(Cc2ccccc2)C(=O)C31 (configuration not stated),–,> 100 µM,–,> 100 µM,–,> 100 µM,–,> 100 µM,–,–,–,> 100 µM,–,–,–,> 100 µM,–,–,–,> 100 µM
Cc1cn(C2CC(N(O)Cc3ccccc3)C(CO[Si](C)(C)C(C)(C)C)O2)c(=O)[nH]c1=O (configuration not stated),35.8 µM and 16.7 µM,> 100 µM and 31.5 µM,–,> 100 µM,–,35.8 µM and 32.6 µM,–,96.6 µM,–,36.5 µM and 29.9 µM,–,36.8 µM and 29.6 µM,–,44.8 µM and 29.4 µM,–,> 100 µM,–,35.6 µM and 36.9 µM,–,33.2 µM and 29.5 µM
CS/C(N)=N\NC(=O)CCC(=O)Nc1ccccc1C(F)(F)F,–,> 100 µM,–,> 100 µM,–,> 100 µM,–,> 100 µM,–,> 100 µM,–,> 100 µM,–,> 100 µM,–,> 100 µM,–,> 100 µM,–,> 100 µM
O=C(NC1=CC(=O)c2ccccc2C1=O)c1ccccc1,2.91 µM,16.4 µM,0.872 µM,–,1.8 µM,3.31 µM,0.549 µM,5.6 µM,2.76 µM,16 µM,0.572 µM,2.6 µM,1.26 µM,2.85 µM,2.04 µM,6.22 µM,2.67 µM,15.7 µM,0.284 µM,0.913 µM
Nn1c(=O)n(Cc2ccccc2)n(-c2ccccc2)c1=O,–,> 100 µM,–,> 100 µM,–,–,–,–,–,> 100 µM,–,> 100 µM,–,> 100 µM,–,> 100 µM,–,> 100 µM,–,> 100 µM
COC(C(O)CO)C(O)C(O)C(=O)NNc1ccccc1 (configuration not stated),–,> 100 µM,–,> 100 µM,–,28.7 µM,–,> 100 µM,–,> 100 µM,–,> 100 µM,–,> 100 µM,–,> 100 µM,–,–,–,98.3 µM
CN1C(=O)c2cccc3cc([N+](=O)[O-])cc(c23)C1=O,–,> 10 µM,–,> 10 µM,–,> 10 µM,–,> 10 µM,–,> 10 µM,–,> 10 µM,–,> 10 µM,–,> 10 µM,–,–,–,> 10 µM
CC1(C)SCc2nc3ncccc3n21,–,> 100 µM,–,> 100 µM,–,> 100 µM,–,> 100 µM,–,> 100 µM,–,> 100 µM,–,> 100 µM,–,> 100 µM,–,> 100 µM,–,> 100 µM
O=C(N/N=C/c1ccc(Cl)cc1)c1ccc(C(F)(F)F)nc1Nc1cccc(C(F)(F)F)c1,2.89 µM,9.61 µM,0.344 µM,3.62 µM,1.8 µM,4.31 µM,0.855 µM,12.2 µM,2.47 µM,10.9 µM,0.347 µM,2.71 µM,2.4 µM,10.5 µM,0.731 µM,5.3 µM,2.21 µM,6.82 µM,2.11 µM,6.69 µM
CCC[CH2][Sn]1([CH2]CCC)[O]CC(CN2CCCC2)[O]1 (configuration not stated),47.2 µM,> 100 µM,3.33 µM,21.3 µM,18.3 µM,34.3 µM,15.3 µM,29.2 µM,34.1 µM,73.8 µM,8.45 µM,23.8 µM,21.1 µM,37.1 µM,14.3 µM,50.4 µM,21.9 µM,64.1 µM,16.9 µM,38.9 µM
COC1(OC)C2(Cl)C(Cl)=C(Cl)C1(Cl)C1C=CC=CC12 (configuration not stated),–,> 100 µM,–,–,–,> 100 µM,–,> 100 µM,–,> 100 µM,–,> 100 µM,–,> 100 µM,–,–,–,> 100 µM,–,> 100 µM
CCCN1CCC(=O)N(CCC(F)(F)C(F)(F)C(F)(F)C(F)(F)C(F)(F)C(F)(F)F)C1=S,–,> 100 µM,–,> 100 µM,–,> 100 µM,–,–,–,> 100 µM,–,> 100 µM,–,> 100 µM,–,> 100 µM,–,> 100 µM,–,> 100 µM
c1ccc(CNn2nnc3ccccc32)cc1,–,> 100 µM,–,> 100 µM,–,> 100 µM,–,> 100 µM,–,> 100 µM,–,> 100 µM,–,> 100 µM,–,> 100 µM,–,–,–,–
Cc1ccc(C2=C(c3ccccc3)C(Br)(c3ccc(C)cc3)C(c3ccccc3)=C2c2ccc(C)cc2)cc1,–,> 100 µM,–,> 100 µM,–,> 100 µM,–,> 100 µM,–,> 100 µM,–,> 100 µM,–,> 100 µM,–,> 100 µM,–,–,–,> 100 µM
CC(C)C(Nc1c2ccccc2nc2ccccc12)C(=O)O (configuration not stated),–,> 100 µM,–,> 100 µM,–,> 100 µM,–,> 100 µM,–,–,–,> 100 µM,–,> 100 µM,–,> 100 µM,–,> 100 µM,–,> 100 µM
COc1cc(C=C2C(=O)NC(=O)NC2=O)cc(OC)c1OC,–,> 100 µM,–,> 100 µM,–,> 100 µM,–,> 100 µM,–,> 100 µM,–,> 100 µM,–,–,–,> 100 µM,–,> 100 µM,–,> 100 µM
